The values below come from article PMC9865645, “The Impact of N^ε-Acryloyllysine Piperazides on the Conformational Dynamics of Transglutaminase 2” (International Journal of Molecular Sciences, 2023).

One experiment addresses T1, hTGase 2 (Homo sapiens, UniProt P21980).
T1 construct: purchased Zedira (Darmstadt, Germany) T022, lot 0716a
T1 sequence (P21980 1-687): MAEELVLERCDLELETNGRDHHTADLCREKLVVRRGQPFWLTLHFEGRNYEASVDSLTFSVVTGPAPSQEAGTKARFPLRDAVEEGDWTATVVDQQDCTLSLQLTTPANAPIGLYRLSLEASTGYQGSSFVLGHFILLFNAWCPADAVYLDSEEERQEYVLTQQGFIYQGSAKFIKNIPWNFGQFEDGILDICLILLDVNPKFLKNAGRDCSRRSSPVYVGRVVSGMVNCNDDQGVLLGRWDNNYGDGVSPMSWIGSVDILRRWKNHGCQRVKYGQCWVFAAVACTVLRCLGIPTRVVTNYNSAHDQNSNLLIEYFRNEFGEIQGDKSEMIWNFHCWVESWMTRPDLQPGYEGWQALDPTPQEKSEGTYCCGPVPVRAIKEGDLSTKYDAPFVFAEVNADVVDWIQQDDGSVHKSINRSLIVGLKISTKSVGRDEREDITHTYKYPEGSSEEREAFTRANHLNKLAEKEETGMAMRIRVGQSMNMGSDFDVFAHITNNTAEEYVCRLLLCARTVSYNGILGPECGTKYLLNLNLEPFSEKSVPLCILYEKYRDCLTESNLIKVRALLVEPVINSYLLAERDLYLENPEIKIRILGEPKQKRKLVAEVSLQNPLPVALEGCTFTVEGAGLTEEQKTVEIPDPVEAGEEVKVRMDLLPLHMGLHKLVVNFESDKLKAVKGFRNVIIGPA
The experiment is described as follows: switchSENSE static mode (fluorescence proximity sensing): binding kinetics of GTPγS to hTGase 2-dsDNA lever. The note with it: for koff / kon: 20 nM GTPγS, best-fit ± standard error; for Kd: quotient koff/kon. Here is the method: The switchSENSE® experiments were performed with a DRX^2 (Dynamic Biosensors, excitation 600–630 nm, emission 650–686 nm). All experiments were performed in TE40 (10 mM TRIS pH 7.4, 40 mM NaCl, 50 µM EDTA, 50 µM EGTA, 100 µM TCEP, 0.05% Tween 20) when not explicitly stated otherwise. For the dynamic mode measurements, the standard operation procedures as described in [56] were applied. For measurements of the kinetics of the interaction of both GTPγS and CaCl2 with hTGase 2, firstly, the ssDNA-hTGase 2 conjugate was hybridized for 360 s to the ssDNA capture strand on the gold microelectrodes of the chip. With 500 nM, the conjugate concentration was chosen relatively high to achieve full coverage of the electrodes. Secondly, 1000 µL of 20 nM GTPγS in TE40 were flushed over the electrodes, followed by about 4000 µL of TE40 (2000 µL/min), to obtain access to the association as well as the dissociation, respectively. Changes in the fluorescence intensity during the GTPγS interaction were recorded using fluorescence proximity sensing (static mode).
The formation of the protein–ligand complex of GTPγS and hTGase 2 can be represented by the reaction equation expressed by Equation (1). (1) P+L kon⇌koff PL
The concentration of the protein–ligand complex, [PL] , at a certain time of association ta is [PL]a . At the beginning of the association, there is no surface-bound complex present, i.e., [PL]=0 , and the ligand concentration is assumed to be constant at [L]=cGTPγS . This neglects diffusion limitation by assuming continuous replacement of the medium at the electrode surface in the microfluidic channel. Thus, the time-dependent equilibrium fraction reached at the association time ta can be expressed by Equation (2). For derivation, see Equations (S1) to (S5) in Supplementary Materials. (2) [PL]a/[PL]∞=1−e^−ka·ta
In Equation (2), [PL]∞ is the equilibrium concentration of the protein–ligand complex, and ka is the apparent rate constant in the association experiment, defined by Equation (3). (3) ka=cGTPγS kon+koff
During the dissociation, the concentration of the free ligand is assumed to be constantly zero. Consequently, Equation (6) should be valid (for derivation, see Equations (S7) to (S10) in Supplementary Materials). (6) [PL]d/[PL]d,0=e^−koff·td
Combining Equations (6) and (7), the time-dependent fluorescence intensity during the dissociation is given by Equation (8). (8) Fd=(Fd,s−Fd,e)(e^−koff·td)+Fd,e
Equations (5) and (8) were fitted to the measured fluorescence intensities of the association and dissociation experiments with 20 nM GTPγS, respectively. This was performed by a damped Gauss–Newton algorithm (see Equations (S12) and (S13) in Supplementary Materials) to determine the best-fit parameters, and consequently, kon and koff. The quotient koff/kon is the dissociation constant, Kd. Additionally, the standard errors of these parameters were estimated (Equations (S14) to (S21) in Supplementary Materials).

In the next experiment the target is T2, commercial His6-hTGase 2 (Homo sapiens, UniProt P21980).
T2 construct: purchased Zedira (Darmstadt, Germany) T022, lot 0716a
T2 sequence (P21980 1-687): T1 sequence (P21980 1-687)
Nature of the experiment: fluorescence anisotropy (FA)-based transamidase activity assay, commercial His6-hTGase 2. It counts as biochemical. Here is the method:
For the analysis of inhibitor 1 on self-produced hTGase 2, 2 µg/mL of the enzyme was used to guarantee comparability with the value reported by Wodtke et al., whereas all other experiments were performed with 5 µg/mL of either commercial or self-produced hTGase 2 (corresponding to 64.1 and 61.6 nM, respectively, when assuming 100% active protein). Parallel and perpendicular fluorescence intensities were measured over 1190 s in 35 s intervals (1) or over 1776 s in 48 s intervals (2, 3) and used to calculate the FA. Data of FA for the first 875 s (1) or 384 s (2, 3) were analyzed by linear regression, with slopes corresponding to enzymatic rates. Rates in the presence of inhibitor were normalized by dividing them by the respective rate in the absence of inhibitor, and normalized rates were analyzed according to Equation (S29) in Supplementary Materials to calculate values of IC50. Data analysis was performed with Microsoft Excel (Microsoft Office Professional Plus 2016, Microsoft® Corporation, USA) and GraphPad Prism version 5.03 or version 6.07 for Windows (GraphPad Software, La Jolla, CA, USA).
(In general: In fluorescence polarisation assays a small probe gives low polarisation when free and higher when bound to something large.)

The target in the next experiment is T3, His6-hTGase 2 (Homo sapiens, UniProt P21980).
T3 construct: purchased Zedira (Darmstadt, Germany) T022, lot 0716a
T3 sequence (P21980 1-687): T1 sequence (P21980 1-687)
Nature of the experiment: fluorimetric activity assay (substrate Z-Glu(HMC)-Gly-OH) for kinact/KI. In kind it is biochemical. The note with it: mean (SEM) of two to four experiments.

Where [1] appears, read: His-tag-directed labeling of hTGase 2.
Setting [2] is: non-directed labeling of hTGase 2.

Regarding `Nc1nc2c(ncn2[C@@H]2O[C@H](COP(=O)(O)OP(=O)(O)OP(O)(O)=S)[C@@H](O)[C@H]2O)c(=O)[nH]1` [GTPγS], on hTGase 2 (setting [1]), the koff is recorded as 1.9 ± 0.5 10^−2 s^−1, the kon was 16 ± 2 10^6 M^−1 s^−1 and the Kd was 1.2 ± 0.4 nM. Moreover, at hTGase 2 (setting [2]), the koff is reported as 1.6 ± 0.6 10^−2 s^−1, the kon is 17 ± 4 10^6 M^−1 s^−1 and the Kd turned out to be 1 ± 0.4 nM.

For `C=CC(=O)NCCCC[C@H](NC(=O)Cc1ccccc1I)C(=O)N1CCN(c2ccc([N+](=O)[O-])nc2)CC1` [Compound 2, N^α-(2-Iodophenylacetyl)-N^ε-acryloyl-L-lysin-4-(2-nitropyridin-5-yl)piperazide], the IC50 against commercial His6-hTGase 2 (5 min pre-incubation of enzyme and inhibitor, mean (SEM) of three experiments) was 154 nM; against commercial His6-hTGase 2 (30 min pre-incubation, hTGase 2 (Zedira) 64.1 nM, mean (SEM)) it was 47.4 nM; against commercial His6-hTGase 2 (FA assay, 30 min pre-incubation, range over in-house and commercial hTGase 2 (62–64 nM)), 35 to 47 nM. Besides, the “ratio of the IC50 and the molar enzyme concentration” value at commercial His6-hTGase 2 (FA assay, 30 min pre-incubation, range over in-house and commercial hTGase 2) was 0.57–0.74. Moreover, at His6-hTGase 2, the kinact/KI is 8340 M⁻¹ s⁻¹.

The Kd is the concentration at which binding is half-saturated. Higher therefore signals a looser complex. As usually defined, the IC50 is the point on the concentration scale where inhibition reaches its midpoint. Read a high IC50 as a need for much substance. What is called kinact/KI is the second-order rate constant of inactivation.
